Our source for the T/C values is PubChem BioAssay AID336 (DTP/NCI, 2004).

Several values for one entry are separate records, joined by “and”; a condition that tells them apart may be missing. Identical values can stand only once. Inconclusive results and toxic doses are left out.

The assay concerns BDF1 mice, P388/VCR leukemia ip, median survival T/C. Kind of assay: NCI In Vivo Anticancer Drug Screen. Data for tumor model P388 Leukemia resistant to Vincristine; NSC 67574 (intraperitoneal) in B6D2F1 (BDF1) mice. The note with it: endpoint: median survival time, higher = longer survival. The protocol:
The antitumor activity of compounds was measured in mice bearing transplantable tumors. Survival or tumor size were measured and the results are expressed as the measurement made in the treated group (T) divided by the measurement made in the vehicle treated control group (C). The tumor model used in this assay is P388 Leukemia resistant to Vincristine; NSC 67574 (intraperitoneal) in B6D2F1 (BDF1) mice

Setting [1] is: dose: 20.0 mg/kg/injection, schedule: Q01DX010 (ip), vehicle: saline.
Setting [2] is: dose: 40.0 mg/kg/injection, schedule: Q01DX010 (ip), vehicle: saline.
The mark [3] stands for this setting: dose: 15.0 mg/kg/injection, schedule: Q01DX010 (ip), vehicle: saline.
Where [4] appears, read: dose: 12.5 mg/kg/injection, schedule: Q01DX010 (sc), vehicle: steriod suspending solution.
The mark [5] stands for this setting: dose: 25.0 mg/kg/injection, schedule: Q01DX010 (sc), vehicle: steriod suspending solution.
Where [6] appears, read: dose: 50.0 mg/kg/injection, schedule: Q01DX010 (sc), vehicle: steriod suspending solution.
Where [7] appears, read: dose: 100.0 mg/kg/injection, schedule: Q01DX010 (sc), vehicle: steriod suspending solution.
The mark [8] stands for this setting: dose: 100.0 mg/kg/injection, schedule: Q01DX010 (ip), vehicle: saline.
The mark [9] stands for this setting: dose: 200.0 mg/kg/injection, schedule: Q01DX010 (ip), vehicle: saline.

As to `NC(C/[N+]([O-])=N/O)C(=O)O` (stereo not drawn), the T/C by setting is: (dose: 173.0 mg/kg/injection, schedule: Q04DX003 (ip), vehicle: sodium bicarbonate) 157 % of control; (dose: 288.0 mg/kg/injection, schedule: Q04DX003 (ip), vehicle: sodium bicarbonate) 179 % of control; (dose: 480.0 mg/kg/injection, schedule: Q04DX003 (ip), vehicle: sodium bicarbonate) 181 % of control; (dose: 800.0 mg/kg/injection, schedule: Q04DX003 (ip), vehicle: sodium bicarbonate) 118 % of control.

Regarding `C[C@H]1C(=O)O[C@@H]2CCN3CC=C(COC(=O)[C@](C)(O)[C@@]1(C)O)[C@H]23`, the T/C reads like this: (dose: 1.56 mg/kg/injection, schedule: Q01DX010 (ip), vehicle: saline) 108 % of control; (dose: 3.13 mg/kg/injection, schedule: Q01DX010 (ip), vehicle: saline) 112 % of control; (dose: 6.25 mg/kg/injection, schedule: Q01DX010 (ip), vehicle: saline) 91 % of control; (dose: 12.5 mg/kg/injection, schedule: Q01DX010 (ip), vehicle: saline) 100 % of control.

Regarding `O=C(Nc1cccc(C(=O)Nc2ccc(C3=NCCN3)cc2)c1)c1ccc(C2=NCCN2)cc1`, under “dose: 54.0 mg/kg/injection, schedule: Q01DX010 (ip), vehicle: saline”, the T/C is 104 % of control.

In the case of `O=c1[nH]c(=O)n(C2CC(O)C(CO)O2)cc1F` (stereo not drawn), the T/C runs as follows: under setting [1], 112 % of control; under setting [2], 154 % of control.

With `CO[C@H](C(=O)[C@@H](O)[C@@H](C)O)[C@@H]1Cc2cc3cc(OC4CC(OC5CC(O)C(O)C(C)O5)C(O)C(C)O4)c(C)c(O)c3c(O)c2C(=O)[C@H]1OC1CC(OC2CC(OC3CC(C)(O)C(O)C(C)O3)C(O)C(C)O2)C(O)C(C)O1` (stereo partly drawn), the T/C (dose: 216.0 micrograms/kg/injection, schedule: Q01DX005 (ip), vehicle: water) is 97 % of control; the T/C (dose: 360.0 micrograms/kg/injection, schedule: Q01DX005 (ip), vehicle: water) is 100 % of control; the T/C (dose: 600.0 micrograms/kg/injection, schedule: Q01DX005 (ip), vehicle: water) is 95 % of control; the T/C (dose: 1000.0 micrograms/kg/injection, schedule: Q01DX005 (ip), vehicle: water) was 95 % of control.

`S=P(N1CC1)(N1CC1)N1CC1`: the T/C is 91 % of control and 95 % of control (dose: 0.75 mg/kg/injection, schedule: Q01DX010 (ip), vehicle: saline); 91 % of control (dose: 1.5 mg/kg/injection, schedule: Q01DX010 (ip), vehicle: saline); 95 % of control (dose: 3.0 mg/kg/injection, schedule: Q01DX010 (ip), vehicle: saline); 91 % of control and 104 % of control (dose: 6.0 mg/kg/injection, schedule: Q01DX010 (ip), vehicle: saline).

In the case of `COc1ccc(CC2C(=O)NC(C)C(=O)N(C)C3Cc4ccc(cc4)Oc4cc(ccc4O)CC(C(=O)NC(C)C(=O)NC(C)C(=O)N2C)N(C)C3=O)cc1` (stereo not drawn), the T/C reads like this: (dose: 4.32 mg/kg/injection, schedule: Q04DX003 (ip), vehicle: other) 108 % of control; (dose: 7.2 mg/kg/injection, schedule: Q04DX003 (ip), vehicle: other) 103 % of control.

As for `N#CCSc1ncnc2nc[nH]c12`, the T/C runs as follows: under setting [3], 96 % of control and 100 % of control; (dose: 30.0 mg/kg/injection, schedule: Q01DX010 (ip), vehicle: saline) 100 % of control and 103 % of control; (dose: 60.0 mg/kg/injection, schedule: Q01DX010 (ip), vehicle: saline) 108 % of control and 123 % of control.

As to `O=C[C@@H](CO)O[C@H](C=O)n1cnc2c(=O)[nH]cnc21`, the T/C by setting is: (dose: 180.0 mg/kg/injection, schedule: Q04DX003 (ip), vehicle: water) 210 % of control; (dose: 300.0 mg/kg/injection, schedule: Q04DX003 (ip), vehicle: water) 323 % of control.

As to `CC(=O)O[C@]1(C(C)=O)CC[C@H]2[C@@H]3C[C@H](C)C4=CC(=O)C=C[C@]4(C)[C@@]3(F)[C@@H](O)C[C@@]21C`, the T/C under setting [4] is 103 % of control, the T/C under setting [5] is 116 % of control, the T/C under setting [6] was 110 % of control and the T/C under setting [7] is 113 % of control.

Consider `COC1C(O)C(C)OC(OC2C(Oc3cccc4c(O)c5c(=O)oc6ccc(C)c7c(=O)oc(c34)c5c67)OC(C)C(O)C2O)C1O` (stereo not drawn), for which the T/C is, setting by setting: (dose: 43.2 mg/kg/injection, schedule: Q04DX003 (ip), vehicle: acid diluted with saline) 121 % of control; (dose: 72.0 mg/kg/injection, schedule: Q04DX003 (ip), vehicle: acid diluted with saline) 114 % of control; (dose: 200.0 mg/kg/injection, schedule: Q04DX003 (ip), vehicle: acid diluted with saline) 123 % of control.

Turning to `CC(C)[C@](O)(C(=O)OCC1=CC[N+]2([O-])CC[C@@H](O)[C@@H]12)[C@H](C)O` (stereo partly drawn), the T/C is 98 % of control (dose: 130.0 mg/kg/injection, schedule: Q01DX009 (ip), vehicle: water); 106 % of control (dose: 216.0 mg/kg/injection, schedule: Q01DX009 (ip), vehicle: water); 113 % of control (dose: 360.0 mg/kg/injection, schedule: Q01DX009 (ip), vehicle: water); 107 % of control (dose: 600.0 mg/kg/injection, schedule: Q01DX009 (ip), vehicle: water).

As for `O=c1cnn(C2OC(CO)C(O)C2O)c(=O)[nH]1` (stereo not drawn), the T/C under setting [8] was 107 % of control; the T/C under setting [9] is 114 % of control; the T/C (dose: 400.0 mg/kg/injection, schedule: Q01DX010 (ip), vehicle: saline) is 115 % of control and 121 % of control; the T/C (dose: 800.0 mg/kg/injection, schedule: Q01DX010 (ip), vehicle: saline) is 123 % of control; the T/C (dose: 1600.0 mg/kg/injection, schedule: Q01DX010 (ip), vehicle: saline) is 88 % of control.

`O=C(Nc1ccc(C(=O)Nc2ccc(C3=NCCCN3)cc2)cc1)Nc1ccc(C2=NCCCN2)cc1`: the T/C is, setting by setting: (dose: 1.88 mg/kg/injection, schedule: Q01DX010 (ip), vehicle: saline) 116 % of control and 123 % of control; (dose: 3.75 mg/kg/injection, schedule: Q01DX010 (ip), vehicle: saline) 116 % of control and 123 % of control; under setting [3], 123 % of control.

`O=C(Nc1ccc(C2=NCCN2)cc1)c1ccc(C(=O)Nc2ccc(C3=NCCN3)cc2)c(NC(=O)c2ccc(C(=O)Nc3cc(C(=O)Nc4ccc(C5=NCCN5)cc4)ccc3C(=O)Nc3ccc(C4=NCCN4)cc3)cc2)c1`: the T/C was 109 % of control (dose: 25.0 mg/kg/injection, schedule: Q01DX010 (ip), vehicle: saline); 109 % of control (dose: 50.0 mg/kg/injection, schedule: Q01DX010 (ip), vehicle: saline); 104 % of control under setting [8]; 104 % of control under setting [9].

For the compound `CC[C@@]1(O)C[C@H](OC2CC(N(C)C)C(OC3CC(O)C(OC4CCC(=O)C(C)O4)C(C)O3)C(C)O2)c2c(cc3c(c2O)C(=O)c2c(O)ccc(O)c2C3=O)[C@H]1C(=O)OC` (stereo partly drawn), the T/C runs as follows: (dose: 2.88 mg/kg/injection, schedule: Q04DX003 (ip), vehicle: water) 118 % of control; (dose: 4.8 mg/kg/injection, schedule: Q04DX003 (ip), vehicle: water) 117 % of control; (dose: 8.0 mg/kg/injection, schedule: Q04DX003 (ip), vehicle: water) 95 % of control.

Regarding `CCCSc1ncnc2nc[nH]c12`, the T/C (dose: 31.3 mg/kg/injection, schedule: Q01DX010 (ip), vehicle: saline) is 95 % of control; the T/C (dose: 62.5 mg/kg/injection, schedule: Q01DX010 (ip), vehicle: saline) was 95 % of control; the T/C (dose: 125.0 mg/kg/injection, schedule: Q01DX010 (ip), vehicle: saline) is 88 % of control and 95 % of control; the T/C (dose: 250.0 mg/kg/injection, schedule: Q01DX010 (ip), vehicle: saline) is 95 % of control.

As for `C[C@]12C=CC(=O)C=C1CC[C@@H]1[C@@H]2[C@@H](O)C[C@@]2(C)[C@H]1CC[C@]2(O)C(=O)CO`, the T/C reads like this: under setting [4], 107 % of control and 116 % of control; under setting [5], 103 % of control and 116 % of control; under setting [6], 103 % of control and 120 % of control; under setting [7], 108 % of control and 111 % of control.

For the compound `CN(C)c1ccc(/C=C/c2ccnc3ccccc23)cc1`, the T/C by setting is: (dose: 5.0 mg/kg/injection, schedule: Q01DX010 (ip), vehicle: saline) 92 % of control and 104 % of control; (dose: 10.0 mg/kg/injection, schedule: Q01DX010 (ip), vehicle: saline) 88 % of control and 96 % of control; under setting [1], 104 % of control; under setting [2], 96 % of control and 100 % of control.

Take `c1ccc(CNc2ncnc3[nH]ncc23)cc1`: the T/C is 92 % of control and 100 % of control (dose: 8.0 mg/kg/injection, schedule: Q01DX010 (ip), vehicle: saline); 88 % of control and 96 % of control (dose: 16.0 mg/kg/injection, schedule: Q01DX010 (ip), vehicle: saline); 100 % of control (dose: 32.0 mg/kg/injection, schedule: Q01DX010 (ip), vehicle: saline); 92 % of control (dose: 64.0 mg/kg/injection, schedule: Q01DX010 (ip), vehicle: saline).
